Assay results: US12351580B2, “NLRP3 modulators” (Innate Tumor Immunity, Inc., priority 2017, dated 2025)

Columns and labels:
TLR7 = biological target: T1, TLR7 (Homo sapiens, UniProt Q9NYK1); experiment: In vitro human TLR7 binding reporter assay (HEK-Blue, NF-kB/AP1-inducible SEAP); type: cell-based; conditions: activity range symbols
T1 construct: host or cells: HEK-Blue cells (human HEK) co-expressing TLR7 and an NF-kB/AP1-inducible SEAP reporter
T1 sequence (Q9NYK1 27-1049): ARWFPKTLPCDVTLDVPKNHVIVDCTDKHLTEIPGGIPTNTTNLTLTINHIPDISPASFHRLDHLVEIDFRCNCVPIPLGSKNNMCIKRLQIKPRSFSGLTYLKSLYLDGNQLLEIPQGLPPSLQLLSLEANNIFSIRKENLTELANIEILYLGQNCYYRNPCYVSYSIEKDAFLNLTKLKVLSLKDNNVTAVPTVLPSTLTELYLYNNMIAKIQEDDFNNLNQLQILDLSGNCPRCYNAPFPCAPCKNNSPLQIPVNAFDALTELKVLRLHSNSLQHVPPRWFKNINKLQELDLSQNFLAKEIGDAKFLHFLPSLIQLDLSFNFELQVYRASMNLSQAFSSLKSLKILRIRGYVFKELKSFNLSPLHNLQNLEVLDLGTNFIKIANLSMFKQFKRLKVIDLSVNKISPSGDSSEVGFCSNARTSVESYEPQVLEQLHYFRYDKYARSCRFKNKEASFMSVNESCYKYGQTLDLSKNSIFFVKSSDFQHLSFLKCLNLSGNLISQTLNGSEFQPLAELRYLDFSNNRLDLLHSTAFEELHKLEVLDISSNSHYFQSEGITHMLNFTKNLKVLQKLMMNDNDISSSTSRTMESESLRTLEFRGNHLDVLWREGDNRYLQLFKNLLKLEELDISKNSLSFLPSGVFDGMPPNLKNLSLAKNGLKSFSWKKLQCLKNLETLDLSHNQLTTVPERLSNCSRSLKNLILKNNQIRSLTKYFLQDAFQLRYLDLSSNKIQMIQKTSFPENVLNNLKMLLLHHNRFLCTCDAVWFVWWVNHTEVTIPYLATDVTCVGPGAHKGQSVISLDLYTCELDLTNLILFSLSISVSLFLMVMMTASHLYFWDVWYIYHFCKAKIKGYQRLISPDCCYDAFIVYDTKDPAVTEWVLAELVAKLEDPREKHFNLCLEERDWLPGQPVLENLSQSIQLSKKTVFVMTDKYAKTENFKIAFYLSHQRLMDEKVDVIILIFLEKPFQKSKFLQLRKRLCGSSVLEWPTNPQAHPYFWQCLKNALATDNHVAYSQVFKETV
Description: (§1) In Vitro Human TLR7 and TLR8 Binding Reporter Assays
(§2) Logarithmically-growing human HEK-Blue cells co-expressing a TLR7 or TLR8 gene and a NF-kB/AP1-inducible SEAP (secreted embryonic alkaline phosphatase; Invivogen, San Diego, CA) reporter gene are added to individual wells of a 384-well plate (15,000 cells per 20 μL per well) and maintained for 24 h at 37° C., 5% CO2. Test compounds or DMSO are distributed to separate wells the next day using acoustic liquid handling technology (100 nL per well) and cells are subsequently incubated for 18 h at 37° C., 5% CO2. Cellular SEAP production is measured using an Envision plate reader instrument thirty minutes after adding freshly-made Quanti-Blue reagent (prepared by following manufacturer instructions; Invivogen, San Diego, CA) to the HEK-Blue TLR Nf-kB-SEAP cell reactions. All EC50 values (half-maximal effective concentration) are determined using proprietary data analysis software.

TLR8 = biological target: T2, TLR8 (Homo sapiens, UniProt Q9NR97); experiment: In vitro human TLR8 binding reporter assay (HEK-Blue, NF-kB/AP1-inducible SEAP); type: cell-based; conditions: activity range symbols
T2 construct: host or cells: HEK-Blue cells (human HEK) co-expressing TLR8 and an NF-kB/AP1-inducible SEAP reporter
T2 sequence (Q9NR97 27-1041): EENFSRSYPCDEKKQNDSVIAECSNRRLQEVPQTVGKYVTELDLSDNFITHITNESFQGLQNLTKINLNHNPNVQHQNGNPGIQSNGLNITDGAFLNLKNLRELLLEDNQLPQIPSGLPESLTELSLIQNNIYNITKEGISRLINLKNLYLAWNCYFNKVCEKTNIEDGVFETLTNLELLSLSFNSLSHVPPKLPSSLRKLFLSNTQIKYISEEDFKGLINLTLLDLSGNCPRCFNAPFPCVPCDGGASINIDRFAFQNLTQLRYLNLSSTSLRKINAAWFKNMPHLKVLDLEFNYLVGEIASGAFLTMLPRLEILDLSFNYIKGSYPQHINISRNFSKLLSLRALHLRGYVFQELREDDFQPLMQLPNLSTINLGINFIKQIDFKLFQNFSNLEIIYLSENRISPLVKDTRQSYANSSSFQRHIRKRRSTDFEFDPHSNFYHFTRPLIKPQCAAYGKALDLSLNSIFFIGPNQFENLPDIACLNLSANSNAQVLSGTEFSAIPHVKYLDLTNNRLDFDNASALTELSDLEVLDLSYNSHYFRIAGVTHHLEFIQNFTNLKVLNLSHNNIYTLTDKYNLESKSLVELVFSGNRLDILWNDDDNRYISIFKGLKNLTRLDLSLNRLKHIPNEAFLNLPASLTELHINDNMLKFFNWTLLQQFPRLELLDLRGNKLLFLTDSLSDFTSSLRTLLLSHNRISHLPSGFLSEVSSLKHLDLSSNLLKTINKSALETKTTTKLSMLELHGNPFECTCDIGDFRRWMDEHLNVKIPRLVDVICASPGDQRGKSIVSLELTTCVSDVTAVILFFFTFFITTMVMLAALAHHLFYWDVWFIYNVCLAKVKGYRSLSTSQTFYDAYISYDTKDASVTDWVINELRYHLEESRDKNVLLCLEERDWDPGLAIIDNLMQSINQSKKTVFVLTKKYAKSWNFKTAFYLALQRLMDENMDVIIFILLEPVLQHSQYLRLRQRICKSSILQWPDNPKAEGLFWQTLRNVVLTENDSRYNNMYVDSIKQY
Description: as §1, §2

SMILES	EC50 (TLR7)	EC50 (TLR8)
Nc1nc2cc(-n3cccn3)ccc2c2[nH]c(CN3CC(c4ccccc4)CC3=O)nc12 (stereo not drawn) [Compound 103]	> 100 µM	> 100 µM
CCN(Cc1nc2c(N)nc3cc(C)ccc3c2[nH]1)C(C)=O [Compound 104]	> 100 µM	> 100 µM
CCNCc1nc2c(N)nc3cc(-c4cc[nH]n4)ccc3c2n1C [Compound 106, 2-((Ethylamino)methyl)-1-methyl-7-(1H-pyrazol-3-yl)-1H-imidazo[4,5-c]quinolin-4-amine]	> 100 µM	> 100 µM
CCN(Cc1nc2c(N)nc3cc(-n4cccn4)ccc3c2[nH]1)S(C)(=O)=O [Compound 108, N-((4-Amino-7-(1H-pyrazol-1-yl)-1H-imidazo[4,5-c]quinolin-2-yl)methyl)-N-ethylmethanesulfonamide]	> 100 µM	> 100 µM
CCN(Cc1nc2c(N)nc3cc(-c4cc[nH]n4)ccc3c2[nH]1)C(=O)OC(C)(C)C [Compound 109, tert-Butyl ((4-amino-7-(1H-pyrazol-3-yl)-1H-imidazo[4,5-c]quinolin-2-yl)methyl)(ethyl)carbamate]	> 100 µM	> 100 µM
CCN(Cc1nc2c(N)nc3cc(-c4cc[nH]n4)ccc3c2[nH]1)C(=O)N(C)C [Compound 110, 1-((4-Amino-7-(1H-pyrazol-3-yl)-1H-imidazo[4,5-c]quinolin-2-yl)methyl)-1-ethyl-3,3-dimethylurea]	> 100 µM	> 100 µM
Nc1nc2cc(C(F)(F)F)ccc2c2[nH]c(CN3CCCC3=O)nc12 [Compound 163]	20 to 100 µM	> 100 µM
CCN(Cc1nc2c(N)nc3ccccc3c2n1CCCC(=O)OC)C(C)=O [Compound 164]	> 100 µM	> 100 µM
CCN(Cc1nc2c(N)nc3cc(-c4ccccc4)ccc3c2[nH]1)C(C)=O [Compound 165, N-[(4-amino-7-phenyl-1H-imidazo[4,5-c]quinolin-2-yl)methyl]-N-ethylacetamide]	> 100 µM	> 100 µM
CCN(Cc1nc2c(N)nc3cc(-c4cccnc4)ccc3c2[nH]1)C(C)=O [Compound 166, N-[(4-amino-7-pyridin-3-yl-1H-imidazo[4,5-c]quinolin-2-yl)methyl]-N-ethylacetamide]	> 100 µM	> 100 µM
CCN(Cc1nc2c(N)nc3cc(-c4ccncc4)ccc3c2[nH]1)C(C)=O [Compound 167, N-[(4-amino-7-pyridin-4-yl-1H-imidazo[4,5-c]quinolin-2-yl)methyl]-N-ethylacetamide]	> 100 µM	> 100 µM
CCN(Cc1nc2c(N)nc3cc(-c4cc(C)nn4C)ccc3c2[nH]1)C(C)=O [Compound 168, N-[[4-amino-7-(2,5-dimethylpyrazol-3-yl)-1H-imidazo[4,5-c]quinolin-2-yl]methyl]-N-ethylacetamide]	> 100 µM	> 100 µM
CCCn1cc(-c2ccc3c(c2)nc(N)c2nc(CN(CC)C(C)=O)[nH]c23)cn1 [Compound 169, N-[[4-amino-7-(1-propylpyrazol-4-yl)-1H-imidazo[4,5-c]quinolin-2-yl]methyl]-N-ethylacetamide]	> 100 µM	> 100 µM
CCN(Cc1nc2c(N)nc3cc(C(C)C)ccc3c2[nH]1)C(C)=O [Compound 170, N-[(4-amino-7-propan-2-yl-1H-imidazo[4,5-c]quinolin-2-yl)methyl]-N-ethylacetamide]	20 to 100 µM	> 100 µM
CCc1ccc2c(c1)nc(N)c1nc(CN(CC)C(C)=O)[nH]c12 [Compound 171, N-[(4-amino-7-ethyl-1H-imidazo[4,5-c]quinolin-2-yl)methyl]-N-ethylacetamide]	1 to 20 µM	> 100 µM
CCCc1ccc2c(c1)nc(N)c1nc(CN(CC)C(C)=O)[nH]c12 [Compound 172, N-[(4-amino-7-propyl-1H-imidazo[4,5-c]quinolin-2-yl)methyl]-N-ethylacetamide]	1 to 20 µM	> 100 µM
CCN(Cc1nc2c(N)nc3cc(C4CCCC4)ccc3c2[nH]1)C(C)=O [Compound 173, N-[(4-amino-7-cyclopentyl-1H-imidazo[4,5-c]quinolin-2-yl)methyl]-N-ethylacetamide]	> 100 µM	> 100 µM
CCN(Cc1nc2c(N)nc3cc(-c4cccnc4F)ccc3c2[nH]1)C(C)=O [Compound 175, N-[[4-amino-7-(2-fluoropyridin-3-yl)-1H-imidazo[4,5-c]quinolin-2-yl]methyl]-N-ethylacetamide]	> 100 µM	> 100 µM
CCN(Cc1nc2c(N)nc3ccccc3c2[nH]1)C(C)=O [Compound 176]	> 100 µM	> 100 µM
CCN(Cc1nc2c(N)nc3cc(Br)ccc3c2[nH]1)C(C)=O [Compound 177]	> 100 µM	> 100 µM
CCN(Cc1nc2c(N)nc3cc(Cl)ccc3c2[nH]1)C(C)=O [Compound 179, N-[(4-amino-7-chloro-1H-imidazo[4,5-c]quinolin-2-yl)methyl]-N-ethylacetamide]	> 100 µM	> 100 µM
CCN(Cc1nc2c(N)nc3cc(-n4cccn4)ccc3c2[nH]1)C(C)=O [Compound 180, N-[(4-amino-7-pyrazol-1-yl-1H-imidazo[4,5-c]quinolin-2-yl)methyl]-N-ethylacetamide]	> 100 µM	> 100 µM
CCN(Cc1nc2c(N)nc3cc(C4=CCCC4)ccc3c2[nH]1)C(C)=O [Compound 183]	> 100 µM	> 100 µM
CC(=O)N(C)Cc1nc2c(N)nc3ccccc3c2[nH]1 [Compound 187]	1 to 20 µM	20 to 100 µM
COC(=O)CCCn1c(CN(C)C(C)=O)nc2c(N)nc3ccccc3c21 [Compound 188]	> 100 µM	> 100 µM
CCN(Cc1nc2c(N)nc3cc(C4CC4)ccc3c2n1Cc1ccc(OC)cc1)C(C)=O [Compound 190]	> 100 µM	> 100 µM
CCN(Cc1nc2c(N)nc3ccccc3c2n1CCCNC(=O)OC(C)(C)C)C(C)=O [Compound 191]	> 100 µM	> 100 µM
CCN(Cc1nc2c(N)nc3ccc(Br)cc3c2[nH]1)C(C)=O [Compound 194]	> 100 µM	> 100 µM
CCN(Cc1nc2c(N)nc3cc(N4CCNC4=O)ccc3c2n1Cc1ccc(OC)cc1)C(C)=O [Compound 196]	> 100 µM	> 100 µM
CCN(Cc1nc2c(N)nc3ccc(Cl)cc3c2[nH]1)C(C)=O [Compound 197]	> 100 µM	> 100 µM
